The values that follow come from patent US20070155795A1, “MUSCARINIC AGONISTS” (ACADIA Pharmaceuticals Inc., priority 2000, published 2007).

The target in data set [1] is T1, m1 muscarinic receptor subtype (Homo sapiens, UniProt P11229).
T1 construct: expressed in transfected cells; host or cells: NIH-3T3 (ATCC CRL 1658)
T1 sequence (P11229 1-460): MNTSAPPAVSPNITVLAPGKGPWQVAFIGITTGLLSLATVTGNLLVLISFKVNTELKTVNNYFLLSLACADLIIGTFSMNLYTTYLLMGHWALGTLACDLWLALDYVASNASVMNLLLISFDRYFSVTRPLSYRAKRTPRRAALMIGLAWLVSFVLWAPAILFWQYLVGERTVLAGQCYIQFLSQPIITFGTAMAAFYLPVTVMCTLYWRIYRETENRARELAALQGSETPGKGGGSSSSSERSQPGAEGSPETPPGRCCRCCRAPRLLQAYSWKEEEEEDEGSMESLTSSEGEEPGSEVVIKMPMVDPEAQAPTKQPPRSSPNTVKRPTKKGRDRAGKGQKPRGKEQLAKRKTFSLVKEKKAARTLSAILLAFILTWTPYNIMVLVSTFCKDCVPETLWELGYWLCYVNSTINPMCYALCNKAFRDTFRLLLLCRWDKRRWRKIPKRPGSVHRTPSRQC
Nature of the data set: R-SAT assay, muscarinic receptor subtype m1. The data set is classed as cell-based. To be noted: transfected NIH-3T3 cells, 5 days; for m1 % Eff: relative to maximum response to carbachol. Here is the method: (§1) Transfected cells were grown in the presence of between 1 nM and 40 μM of the test compound for 5 days. On day 5, the cells were lysed using 0.5% Nonidet-P and β-galactosidase expression was quantified using the chromogenic substrate o-nitrophenyl-β-D-galactoside (ONGP).
(§2) Data were normalized relative to the maximum response of the cells to the muscarinic agonist carbachol, and the following equation was fitted to the data: • response=minimum+(maximum−minimum)/(1+(EC50/[ligand])) • Where [ligand]=ligand concentration. • % Efficacy was defined as: • (maximum−minimum)/(maximum response of cells to carbachol). • pEC50=−log (EC50). • Where data gave a bell-shaped curve, “maximum” was defined as the highest observed response.

Data set [2] concerns the target T2, m5 muscarinic receptor subtype (Homo sapiens, UniProt P08912).
T2 construct: expressed in transfected cells; host or cells: NIH-3T3 (ATCC CRL 1658)
T2 sequence (P08912 1-532): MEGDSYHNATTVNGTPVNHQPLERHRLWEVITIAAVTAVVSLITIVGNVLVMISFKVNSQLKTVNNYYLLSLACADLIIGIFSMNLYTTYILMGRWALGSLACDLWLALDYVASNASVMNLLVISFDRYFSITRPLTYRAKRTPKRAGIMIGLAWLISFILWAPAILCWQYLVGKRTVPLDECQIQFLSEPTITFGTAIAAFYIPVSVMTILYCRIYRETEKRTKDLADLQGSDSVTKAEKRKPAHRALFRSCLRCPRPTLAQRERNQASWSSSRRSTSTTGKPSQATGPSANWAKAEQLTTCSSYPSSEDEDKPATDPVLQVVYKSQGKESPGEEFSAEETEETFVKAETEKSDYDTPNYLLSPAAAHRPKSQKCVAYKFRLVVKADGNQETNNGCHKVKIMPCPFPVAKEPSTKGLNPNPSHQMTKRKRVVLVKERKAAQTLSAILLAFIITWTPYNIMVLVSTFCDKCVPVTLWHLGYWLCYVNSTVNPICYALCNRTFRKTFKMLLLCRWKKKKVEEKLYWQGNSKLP
Put plainly: R-SAT assay, muscarinic receptor subtype m5. The data set is classed as cell-based. To be noted: transfected NIH-3T3 cells, 5 days; for m5 % Eff: relative to maximum response to carbachol. The method, then:
(§3) Screening Of Test Compounds In An Assay Using Muscarinic Receptor Subtypes m1, m2, m3, m4 and m5. The m1, m2, m3, m4 and m5 muscarinic receptor subtypes were cloned substantially as described by Bonner et al., Science […] and Bonner et al., Neuron 1:403 (1988). R-SAT assays were carried out substantially as described in U.S. Pat. Nos. 5,707,798, 5,912,132, and 5,955,281, and by Braüner-Osborne & Brann, Eur. J. Pharmacol. 295:93 (1995). NIH-3T3 cells (available from the American Type Culture Collection as ATCC CRL 1658) were transfected with plasmid DNA encoding the m1, m2, m3, m4 or m5 receptors and plasmid DNA encoding β-galactosidase. Transfected cells were grown in the presence of between 1 nM and 40 μM of the test compound for 5 days. On day 5, the cells were lysed using 0.5% Nonidet-P and β-galactosidase expression was quantified using the chromogenic substrate o-nitrophenyl-β-D-galactoside (ONGP).
as §2

Data set [3] addresses T3, m2 muscarinic receptor subtype (Homo sapiens, UniProt P08172).
T3 construct: expressed in transfected cells; host or cells: NIH-3T3 (ATCC CRL 1658)
T3 sequence (P08172 1-466): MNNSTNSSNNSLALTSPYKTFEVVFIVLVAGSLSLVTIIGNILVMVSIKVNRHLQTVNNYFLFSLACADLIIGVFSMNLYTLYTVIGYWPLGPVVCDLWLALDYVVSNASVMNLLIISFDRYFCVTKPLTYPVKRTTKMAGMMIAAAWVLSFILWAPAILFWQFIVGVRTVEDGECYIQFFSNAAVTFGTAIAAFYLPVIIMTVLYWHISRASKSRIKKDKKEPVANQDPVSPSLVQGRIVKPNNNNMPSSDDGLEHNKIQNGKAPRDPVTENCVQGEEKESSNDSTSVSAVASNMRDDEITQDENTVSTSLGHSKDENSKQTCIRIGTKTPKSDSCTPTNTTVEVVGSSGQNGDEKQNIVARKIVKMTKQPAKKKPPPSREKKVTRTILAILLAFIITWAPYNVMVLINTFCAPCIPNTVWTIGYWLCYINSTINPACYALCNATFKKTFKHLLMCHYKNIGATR
Nature of the data set: R-SAT assay, muscarinic receptor subtype m2. Particulars: transfected NIH-3T3 cells, 5 days, relative to maximum response to carbachol. The data set is classed as cell-based. Here is the method:
as §3, §2

In the next data set the test system is Glaucomatous Monkeys. Nature of the data set: Intraocular pressure in glaucomatous monkeys (laser-induced unilateral ocular hypertension). The data set is classed as in vivo, cynomolgus monkeys (Macacca fascicularis). To be noted: conscious monkeys. The method, then:
Effects of Compound 35AKU-21 on Intaocular Pressure in Primates. All studies were conducted in fully conscious female cynomolgus monkeys (Macacca fascicularis) weighing 3-4 kg. Unilateral ocular hypertension was produced by argon laser photocoagulation to the mid-trabecular meshwork (Sawyer & McGuigan, Invest. Ophthalmol. Vis. Sci. 29:81(1988)).
Animals were trained to allow measuring intraocular pressure (IOP) with a model 30 Classic pneumatonometer (Mentor O&O Co.). Throughout each study, monkeys sat in specially designed chairs (Primate Products, San Francisco) and fed fruits and juices as needed.
The drug was administered topically. The drug was formulated in an aqueous solution such as distilled water, saline or citrate buffer at a pH 5-7 and applied unilaterally as a 35 μL drop; the contralateral eye received an equal volume of saline (or vehicle). Two baseline measurements were made prior to administration of the drug, followed by periodic measurements up to 6 hours post drug administration.

Data set [4] deals with T4, m4 muscarinic receptor subtype (Homo sapiens, UniProt P08173).
T4 construct: expressed in transfected cells; host or cells: NIH-3T3 (ATCC CRL 1658)
T4 sequence (P08173 1-479): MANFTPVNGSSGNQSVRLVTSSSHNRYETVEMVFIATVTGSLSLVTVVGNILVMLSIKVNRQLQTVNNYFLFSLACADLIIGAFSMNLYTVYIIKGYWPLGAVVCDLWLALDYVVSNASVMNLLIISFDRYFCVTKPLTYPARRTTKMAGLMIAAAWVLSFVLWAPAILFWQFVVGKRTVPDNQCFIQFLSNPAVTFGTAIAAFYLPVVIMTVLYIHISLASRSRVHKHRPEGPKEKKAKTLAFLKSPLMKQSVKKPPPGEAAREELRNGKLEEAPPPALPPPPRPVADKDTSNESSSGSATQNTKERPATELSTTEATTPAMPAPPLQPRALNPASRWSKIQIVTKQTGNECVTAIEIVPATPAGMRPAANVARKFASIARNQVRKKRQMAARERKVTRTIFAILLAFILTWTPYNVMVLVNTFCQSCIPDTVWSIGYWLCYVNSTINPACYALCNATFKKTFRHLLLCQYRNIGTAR
Put plainly: R-SAT assay, muscarinic receptor subtype m4. The class given is cell-based. Particulars: transfected NIH-3T3 cells, 5 days; for m4 % Eff: relative to maximum response to carbachol. Here is the method:
as §1, §2

For data set [5], the target named is T5, m3 muscarinic receptor subtype (Homo sapiens, UniProt P20309).
T5 construct: expressed in transfected cells; host or cells: NIH-3T3 (ATCC CRL 1658)
T5 sequence (P20309 whole entry): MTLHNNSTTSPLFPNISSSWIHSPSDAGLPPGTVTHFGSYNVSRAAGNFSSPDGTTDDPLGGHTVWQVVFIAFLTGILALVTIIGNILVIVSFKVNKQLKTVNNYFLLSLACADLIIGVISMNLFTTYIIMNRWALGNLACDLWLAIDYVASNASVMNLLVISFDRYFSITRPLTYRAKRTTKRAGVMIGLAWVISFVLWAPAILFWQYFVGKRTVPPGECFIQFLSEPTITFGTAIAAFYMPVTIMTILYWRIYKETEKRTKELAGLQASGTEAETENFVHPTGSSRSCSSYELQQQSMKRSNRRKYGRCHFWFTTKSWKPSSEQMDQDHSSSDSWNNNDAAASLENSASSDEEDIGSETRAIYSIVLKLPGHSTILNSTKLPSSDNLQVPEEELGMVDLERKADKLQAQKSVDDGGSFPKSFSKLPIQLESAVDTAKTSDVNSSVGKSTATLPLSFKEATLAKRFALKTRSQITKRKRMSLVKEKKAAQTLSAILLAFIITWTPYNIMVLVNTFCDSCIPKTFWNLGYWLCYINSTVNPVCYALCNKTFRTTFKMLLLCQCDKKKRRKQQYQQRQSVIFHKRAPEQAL
Nature of the data set: R-SAT assay, muscarinic receptor subtype m3. Particulars: transfected NIH-3T3 cells, 5 days, relative to maximum response to carbachol. The data set is classed as cell-based. Here is the method:
as §3, §2

For data set [6] the following is noted: in vivo; cited from earlier work.

As for `CCCCC1CCN(CCCn2ncc3ccccc32)CC1` [Example 19, 1-(3-(4-n-Butylpiperidine)-1-yl-propyl)-4H-indazole], the “m1 pEC50” value in data set [1] stood at 7.3. For the same compound, in data set [1], the “m1 % Eff” value was 86%. In addition, in data set [2], the “m5 % Eff” value was “no response (No response: Efficacy <25% maximum response of carbachol. This level of activity is not considered significantly different to no response.)”. The “m2 % Eff” value in data set [3] is on record as “no response (No response: Efficacy <25% maximum response of carbachol. This level of activity is not considered significantly different to no response.)”. Moreover, the “% IOP Change” value with Glaucomatous Monkeys (1 HR after topical 35 μL drop) is reported as −9.3%; with Glaucomatous Monkeys (2 HR after topical 35 μL drop), −21.3%; in the data set with Glaucomatous Monkeys (4 HR after topical 35 μL drop), −25.9%; in the data set on Glaucomatous Monkeys (6 HR after topical 35 μL drop), −29.2%. Besides, the “m4 pEC50” value in data set [4] came out at 6.5. In addition, in data set [4], the “m4 % Eff” value turned out to be 70%. In addition, the “m3 % Eff” value in data set [5] was “no response (No response: Efficacy <25% maximum response of carbachol. This level of activity is not considered significantly different to no response.)”.
Regarding `CCCCC1CCN(CCCc2nc3c(C)cccc3[nH]2)CC1` [Example 32, 4-Methyl-2-(3-(4-n-butylpiperidine)-1-yl-propyl)-1H-benzoimidazole], in data set [1], the “m1 pEC50” value was determined as 6.4 and the “m1 % Eff” value is on record as 52%. For the same compound, in data set [2], the “m5 % Eff” value is “no response (No response: Efficacy <25% maximum response of carbachol. This level of activity is not considered significantly different to no response.)”. For the same compound, the “m2 % Eff” value in data set [3] was “no response (No response: Efficacy <25% maximum response of carbachol. This level of activity is not considered significantly different to no response.)”. The “m4 % Eff” value in data set [4] is on record as “no response (No response: Efficacy <25% maximum response of carbachol. This level of activity is not considered significantly different to no response.)”. Also, the “m3 % Eff” value in data set [5] is given as “no response (No response: Efficacy <25% maximum response of carbachol. This level of activity is not considered significantly different to no response.)”.
As for `CCCC1CCN(CCCn2ncc3ccccc32)CC1` [Example 41, 1-(3-(4-Propylpiperidine)-1-yl-propyl)-1H-indazole], the results for the EC50 in data set [1] (read-out: m1 pEC50 (converted)), in data set [2] (read-out: m5 pEC50 (converted)) and in data set [4] (read-out: m4 pEC50 (converted)) were 126 nM, > 3160 nM and 631 nM, respectively. Also, in data set [1], the “m1 % Eff” value came out at 81%. In addition, the “m5 % Eff” value in data set [2] is 31%. For the same compound, the “m2 % Eff” value in data set [3] is recorded as “no response (No response: Efficacy <25% maximum response of carbachol. This level of activity is not considered significantly different to no response.)”. For the same compound, the “m4 % Eff” value in data set [4] turned out to be 69%. For the same compound, in data set [5], the “m3 % Eff” value is “no response (No response: Efficacy <25% maximum response of carbachol. This level of activity is not considered significantly different to no response.)”.
Consider `CCCCC1CCN(CCCn2nnc3ccccc32)CC1` [Example 61, 1-[3-(4-Butylpiperidin-1-yl)-propyl]-1H-benzotriazole], for which, in data set [1], the “m1 pEC50” value turned out to be 6.3 and the “m1 % Eff” value came out at 59%. For the same compound, the “m5 % Eff” value in data set [2] is “no response (No response: Efficacy <25% maximum response of carbachol. This level of activity is not considered significantly different to no response.)”. Further, the “m2 % Eff” value in data set [3] was “no response (No response: Efficacy <25% maximum response of carbachol. This level of activity is not considered significantly different to no response.)”. Moreover, in data set [4], the “m4 pEC50” value amounted to 6.0 and the “m4 % Eff” value came out at 39%. Further, the “m3 % Eff” value in data set [5] is given as “no response (No response: Efficacy <25% maximum response of carbachol. This level of activity is not considered significantly different to no response.)”.
Consider `CCCCC1CCN(CCCc2n[nH]c3ccccc23)CC1.Cl` [Example 89, 3-[3-(4-Butyl-piperidine-1-yl)-propyl]1-H-indazole, HCl], for which, in data set [1], the “m1 pEC50” value was 7.3 and the “m1 % Eff” value was 85%. Besides, the “m5 % Eff” value in data set [2] is reported as “no response (No response: Efficacy <25% maximum response of carbachol. This level of activity is not considered significantly different to no response.)”. In data set [3], the “m2 % Eff” value is reported as “no response (No response: Efficacy <25% maximum response of carbachol. This level of activity is not considered significantly different to no response.)”. Also, in data set [4], the “m4 pEC50” value is given as 6.8 and the “m4 % Eff” value worked out at 53%. For the same compound, the “m3 % Eff” value in data set [5] is on record as “no response (No response: Efficacy <25% maximum response of carbachol. This level of activity is not considered significantly different to no response.)”.
Regarding `Nc1c2c(nc3ccccc13)CCCC2` [tacrine], the “patients with elevated liver transaminases (hepatotoxicity)” value in data set [6] is “about 30%”.
